Assay results taken from paper PMC4754898, “Discovery of Radioiodinated Monomeric Anthraquinones as a Novel Class of Necrosis Avid Agents for Early Imaging of Necrotic Myocardium” (Scientific Reports, 2016).

Legend:
necrotic muscle [1] = assay: Biodistribution in mice with muscular necrosis (gamma counting); assay type: in vivo, Kunming mice; conditions: model mice, 0.37 MBq i.v.
Description: All animals were given 0.12% potassium iodide in drinking water from 3 days before the experiment till the end of experiment to protect the thyroid gland from taking up free ^131I.
Each mouse was intramuscularly injected with 0.1 mL absolute alcohol in the left hind limb to induce muscular necrosis.
At least 12 h after recovery from surgery, each model mouse was intravenously administrated with 0.37 MBq of ^131I-anthraquinones and each rat was intravenously injected with 3.7 MBq of ^131I-rhein or ^131I-Hyp for pharmacological evaluations. All animals were intravenously administered with 0.1 ml of 1% Evans blue solution for intravital staining of necrosis that helped to selectively sample bluish necrotic tissues for radioactivity quantification.
One hundred and twenty model mice were randomly divided into 24 groups for eight tracers (n = 5 per compound and per time point). Mice were sacrificed by cervical dislocation at 2 h, 12 h and 24 h after administration. Necrotic and normal tissues of interest (blood, thyroid, lung, heart, liver, spleen, stomach, kidney, viable/necrotic muscle) were sampled, and wet weighed with the radioactivity measured by a γ-counter. Background radiation and physical decay were corrected during counting. The results were expressed as percentage of the injected dose per gram of tissue (%ID/g). Ratios of radioactivity concentrations between in necrotic and viable muscle were calculated.

[2] = In vitro stability of 131I-anthraquinones in rat serum by TLC; assay type: in vitro ADME; conditions: 37 °C, 24 h
Description: Iodogen ([…]-3a, 6a-diphenylglycouracil; Sigma, St. Louis, MO) was dissolved in dichloromethane and deposited on the wall of tubes as a thin film. Radioiodination was initiated by adding dimethylsulfoxide (DMSO) solutions of each anthraquinone (1.25 mg/mL) and Na^131I solutions (4:1, v/v) into Iodogen-coated tube, adjusting pH with phosphate buffered saline (PBS, pH 7.4). Then these mixtures were shaken and incubated at 45 °C for 2–4 h, and radiochemical purity was determined by thin-layer chromatography (TLC) using Whatman No.1 filter paper and 0.1 M hydrochloric acid as the developing solvent. Then the solvent was evaporated, the paper was cut in half and measured the radioactivity by direct γ-counting (WIZARD1470; PerkinElmer, USA). For obtaining the injectants, these mixtures were diluted with propylene glycol and polyethylene glycol 400 (1:1, v/v), respectively.
In vitro stability of eight ^131I-anthraquinones were tested in rat serum, 0.1 mL injectant was added to 0.9 mL rat serum (1:9, v/v) and incubated at 37 °C. Then radiolabeling stability was determined by TLC using the procedure described above at the time points of 0.5 h, 6 h, 12 h and 24 h, respectively.

necrotic muscle [3] = assay: TTC staining and quantitative autoradiography of necrotic and viable muscle; set-up: species or system Kunming mice; conditions: mouse, in vivo
Description: The necrotic muscles were stained in 2% TTC solution at 37 °C for 15 min and digitally photographed, then cut into 50 μm frozen sections with a cryotome (Shandon FSE, Thermo Fisher Scientific Co., Waltham, MA, USA) for autoradiography. Autoradiographs of these sections were obtained by exposure to a high-performance storage phosphor screen (Cyclone; Canberra-Packard, Ontario, Canada) for 6–48 h and digitally photographed with Optiquant software (Pacard, Packard Meriden, CT, USA). Relative tracer concentrations in necrotic muscles were evaluated by regions of interest analysis and the results were compared with that from the corresponding viable muscles.

infarcted myocardium = assay: Autoradiography of MI heart sections from model rats; assay type: in vivo, Sprague-Dawley rats; conditions: 50 μm frozen sections
[4] = In vitro stability of 131I-rhein in rat serum by radio-HPLC; assay type: in vitro ADME; conditions: 37 °C, 24 h
Description: Reversed-phase high performance liquid chromatography (RP-HPLC) was equipped with Waters 2998 PDA detector, HERM LB500 radiometric detector (Berthold Technologies, Germany), a pump (Waters 2695) and a Alltima C18 column (250 × 4.6 mm, 5 μm, GRACE). The mobile phase was methanol/0.1% phosphoric acid in water (80:20, v/v), the flow rate was 1.0 mL/min and the temperature of column was 30 °C. All solvents used for HPLC analysis were HPLC grade.
^131I-rhein was incubated in rat serum at 37 °C for 24 h, and the mixture was mixed with methanol at a ratio of 2:3 and shaken. After centrifuging the mixture at 12000 rpm for 10 min, the supernatant was collected and passed through 0.22-μm pore-size filters (Membrana, Wuppertal, NRW, Germany) for in vitro stability analysis by radio-HPLC as described above.

necrotic myocardium [5] = conditions: rat, in vivo, iv
[6] = Pharmacokinetics (blood clearance) in normal rats; assay type: in vivo, Sprague-Dawley rats
Description: For the pharmacokinetic study, six healthy rats were intravenously injected with ^131I-rhein under anesthesia. The blood samples (10 μL) were collected by means of a tail incision at 5 min, 10 min, 30 min, 1 h, 2 h, 4 h, 6 h, 8 h, 10 h, 12 h and 24 h after administration. The radioactivity of blood samples was measured and the results were expressed as megabecquerel per liter (MBq/L). The blood pharmacokinetic parameters of the radiotracer were analyzed by using the non-compartmental analysis of Drug and Statistics for windows 2.0 software.

necrotic myocardium [7] = assay: SPECT/CT imaging of rats with reperfused MI or sham operation; assay type: in vivo, Sprague-Dawley rats; conditions: 6 h after administration

O=C1c2ccccc2C(=O)c2c1ccc([131I])c2O [^131I-1-hydroxyanthraquinone]
Blood uptake (necrotic muscle [1]; 2 h after administration): 3.19 ± 0.35 %ID/g
Heart uptake (necrotic muscle [1]; 2 h after administration): 0.58 ± 0.06 %ID/g
Kidney uptake (necrotic muscle [1]; 2 h after administration): 1.64 ± 0.17 %ID/g
Liver uptake (necrotic muscle [1]; 2 h after administration): 1.07 ± 0.11 %ID/g
Lung uptake (necrotic muscle [1]; 2 h after administration): 1.12 ± 0.09 %ID/g
N/V ratio (necrotic muscle/viable muscle) (necrotic muscle [1]; 2 h after administration): 3.71 ± 0.37
Necrotic.m (necrotic muscle) uptake (necrotic muscle [1]; 2 h after administration): 2.75 ±0.31 %ID/g
Spleen uptake (necrotic muscle [1]; 2 h after administration): 1.04 ± 0.08 %ID/g
Stomach uptake (necrotic muscle [1]; 2 h after administration): 1.40 ± 0.13 %ID/g
Thyroid uptake (necrotic muscle [1]; 2 h after administration): 1.53 ± 0.21 %ID/g
Viable.m (viable muscle) uptake (necrotic muscle [1]; 2 h after administration): 0.74 ± 0.05 %ID/g
Blood uptake (necrotic muscle [1]; 12 h after administration): 0.66 ± 0.04 %ID/g
Heart uptake (necrotic muscle [1]; 12 h after administration): 0.11 ± 0.01 %ID/g
Kidney uptake (necrotic muscle [1]; 12 h after administration): 0.37 ± 0.02 %ID/g
Liver uptake (necrotic muscle [1]; 12 h after administration): 0.24 ± 0.03 %ID/g
Lung uptake (necrotic muscle [1]; 12 h after administration): 0.33 ± 0.04 %ID/g
N/V ratio (necrotic muscle/viable muscle) (necrotic muscle [1]; 12 h after administration): 4.22 ± 0.02
Necrotic.m (necrotic muscle) uptake (necrotic muscle [1]; 12 h after administration): 0.59 ± 0.05 %ID/g
Spleen uptake (necrotic muscle [1]; 12 h after administration): 0.26 ± 0.02 %ID/g
Stomach uptake (necrotic muscle [1]; 12 h after administration): 0.82 ± 0.09 %ID/g
Thyroid uptake (necrotic muscle [1]; 12 h after administration): 0.46 ± 0.03 %ID/g
Viable.m (viable muscle) uptake (necrotic muscle [1]; 12 h after administration): 0.14 ± 0.01 %ID/g
Blood uptake (necrotic muscle [1]; 24 h after administration): 0.07 ± 0.01 %ID/g
Heart uptake (necrotic muscle [1]; 24 h after administration): 0.02 ± 0.00 %ID/g
Kidney uptake (necrotic muscle [1]; 24 h after administration): 0.04 ± 0.01 %ID/g
Liver uptake (necrotic muscle [1]; 24 h after administration): 0.08 ± 0.01 %ID/g
Lung uptake (necrotic muscle [1]; 24 h after administration): 0.05 ± 0.01 %ID/g
N/V ratio (necrotic muscle/viable muscle) (necrotic muscle [1]; 24 h after administration): 5.83 ± 0.29
Necrotic.m (necrotic muscle) uptake (necrotic muscle [1]; 24 h after administration): 0.35 ± 0.02 %ID/g
Spleen uptake (necrotic muscle [1]; 24 h after administration): 0.02 ± 0.00 %ID/g
Stomach uptake (necrotic muscle [1]; 24 h after administration): 0.09 ± 0.01 %ID/g
Thyroid uptake (necrotic muscle [1]; 24 h after administration): 0.33 ± 0.04 %ID/g
Viable.m (viable muscle) uptake (necrotic muscle [1]; 24 h after administration): 0.06 ± 0.00 %ID/g
stability after incubation in rat plasma (TLC) [2]: 87.93% ± 0.45%
necrotic/viable muscle ratio by quantitative autoradiography (necrotic muscle [3]): 9.16 ± 0.78

O=C(O)c1cc(O)c2c(c1)C(=O)c1ccc([131I])c(O)c1C2=O [^131I-rhein]
activity in infarcted myocardium relative to viable myocardium (autoradiography) (infarcted myocardium): 14 fold
intact parent tracer after incubation in rat serum (radio-HPLC) [4]: 91.75% ± 0.47%
Blood uptake (necrotic muscle [1]; 2 h after administration): 3.14 ± 0.32 %ID/g
Heart uptake (necrotic muscle [1]; 2 h after administration): 0.47 ± 0.05 %ID/g
Kidney uptake (necrotic muscle [1]; 2 h after administration): 2.68 ± 0.47 %ID/g
Liver uptake (necrotic muscle [1]; 2 h after administration): 2.03 ± 0.21 %ID/g
Lung uptake (necrotic muscle [1]; 2 h after administration): 0.95 ± 0.06 %ID/g
N/V ratio (necrotic muscle/viable muscle) (necrotic muscle [1]; 2 h after administration): 5.84 ± 0.10
Necrotic.m (necrotic muscle) uptake (necrotic muscle [1]; 2 h after administration): 4.61 ± 0.39 %ID/g
Spleen uptake (necrotic muscle [1]; 2 h after administration): 0.97 ± 0.13 %ID/g
Stomach uptake (necrotic muscle [1]; 2 h after administration): 1.40 ± 0.16 %ID/g
Thyroid uptake (necrotic muscle [1]; 2 h after administration): 1.56 ± 0.17 %ID/g
Viable.m (viable muscle) uptake (necrotic muscle [1]; 2 h after administration): 0.79 ± 0.08 %ID/g
Blood uptake (necrotic muscle [1]; 12 h after administration): 1.20 ± 0.13 %ID/g
Heart uptake (necrotic muscle [1]; 12 h after administration): 0.28 ± 0.03 %ID/g
Kidney uptake (necrotic muscle [1]; 12 h after administration): 2.03 ± 0.12 %ID/g
Liver uptake (necrotic muscle [1]; 12 h after administration): 1.55 ± 0.12 %ID/g
Lung uptake (necrotic muscle [1]; 12 h after administration): 0.62 ± 0.05 %ID/g
N/V ratio (necrotic muscle/viable muscle) (necrotic muscle [1]; 12 h after administration): 7.26 ± 0.23
Necrotic.m (necrotic muscle) uptake (necrotic muscle [1]; 12 h after administration): 4.06 ± 0.16 %ID/g
Spleen uptake (necrotic muscle [1]; 12 h after administration): 0.65 ± 0.08 %ID/g
Stomach uptake (necrotic muscle [1]; 12 h after administration): 1.05 ± 0.11 %ID/g
Thyroid uptake (necrotic muscle [1]; 12 h after administration): 0.78 ± 0.07 %ID/g
Viable.m (viable muscle) uptake (necrotic muscle [1]; 12 h after administration): 0.56 ± 0.04 %ID/g
Blood uptake (necrotic muscle [1]; 24 h after administration): 0.15 ± 0.01 %ID/g
Heart uptake (necrotic muscle [1]; 24 h after administration): 0.08 ± 0.01 %ID/g
Kidney uptake (necrotic muscle [1]; 24 h after administration): 0.65 ± 0.07 %ID/g
Liver uptake (necrotic muscle [1]; 24 h after administration): 0.49 ± 0.05 %ID/g
Lung uptake (necrotic muscle [1]; 24 h after administration): 0.18 ± 0.03 %ID/g
N/V ratio (necrotic muscle/viable muscle) (necrotic muscle [1]; 24 h after administration): 12.33 ± 0.67
Necrotic.m (necrotic muscle) uptake (necrotic muscle [1]; 24 h after administration): 0.74 ± 0.04 %ID/g
Spleen uptake (necrotic muscle [1]; 24 h after administration): 0.29 ± 0.03 %ID/g
Stomach uptake (necrotic muscle [1]; 24 h after administration): 0.09 ± 0.02 %ID/g
Thyroid uptake (necrotic muscle [1]; 24 h after administration): 0.32 ± 0.06 %ID/g
Viable.m (viable muscle) uptake (necrotic muscle [1]; 24 h after administration): 0.06 ± 0.00 %ID/g
stability after incubation in rat plasma (TLC) [2]: 93.17% ± 0.38%
necrotic/viable myocardium ratio (necrotic myocardium [5]): about 9.81 ± 0.61
radioactivity concentration in blood (necrotic myocardium [5]; 6 h): 0.36 ± 0.03 %ID/g
radioactivity concentration in infarcted myocardium (necrotic myocardium [5]; 6 h): 1.18 ± 0.03 %ID/g
radioactivity concentration in kidney (necrotic myocardium [5]; 6 h): 0.68 ± 0.04 %ID/g
radioactivity concentration in liver (necrotic myocardium [5]; 6 h): 0.14 ± 0.01 %ID/g
radioactivity concentration in lung (necrotic myocardium [5]; 6 h): 0.24 ± 0.02 %ID/g
radioactivity concentration in viable myocardium (necrotic myocardium [5]; 6 h): 0.12 ± 0.01 %ID/g
necrotic/viable muscle ratio by quantitative autoradiography (necrotic muscle [3]): 17.64 ± 1.28
radioactivity concentration in blood as share of peak radioactivity concentration ([6]; 6 h): 23.47% ± 1.91%
AUC(0 –∞) ([6]; i.v. 3.7 MBq, blood): 211.76 ± 31.18 MBq/L*h
CLZ (clearance) ([6]; i.v. 3.7 MBq, blood): 0.67 ± 0.17 mL/min/kg
Cmax ([6]; i.v. 3.7 MBq, blood): 42.40 ± 5.41 MBq/L
Tmax ([6]; i.v. 3.7 MBq, blood): 4.8 ± 0 min
VZ ([6]; i.v. 3.7 MBq, blood): 0.42 ± 0.06 L/kg
t1/2z (elimination half-life) ([6]; i.v. 3.7 MBq, blood): 8.20 ± 0.49 h
AUC(0 –t) ([6]; i.v. 3.7 MBq, within 24 h, blood): 187.46 ± 28.26 MBq/L*h
SPECT/CT imaging outcome in the heart (necrotic myocardium [7]): Relatively high uptake as a hot spot showed up in the heart of the model rat
